molecular target: T1, ALDH1A1 enzyme (Homo sapiens, UniProt P00352); assay: ALDH1A1 enzymatic assay (in vitro); format: biochemical; details: ALDH1A1 enzyme 20 nM, NAD+ 1 mM, propionaldehyde 80 μM; read-out: ALDH1A1 IC50
T1 sequence (P00352 1-501): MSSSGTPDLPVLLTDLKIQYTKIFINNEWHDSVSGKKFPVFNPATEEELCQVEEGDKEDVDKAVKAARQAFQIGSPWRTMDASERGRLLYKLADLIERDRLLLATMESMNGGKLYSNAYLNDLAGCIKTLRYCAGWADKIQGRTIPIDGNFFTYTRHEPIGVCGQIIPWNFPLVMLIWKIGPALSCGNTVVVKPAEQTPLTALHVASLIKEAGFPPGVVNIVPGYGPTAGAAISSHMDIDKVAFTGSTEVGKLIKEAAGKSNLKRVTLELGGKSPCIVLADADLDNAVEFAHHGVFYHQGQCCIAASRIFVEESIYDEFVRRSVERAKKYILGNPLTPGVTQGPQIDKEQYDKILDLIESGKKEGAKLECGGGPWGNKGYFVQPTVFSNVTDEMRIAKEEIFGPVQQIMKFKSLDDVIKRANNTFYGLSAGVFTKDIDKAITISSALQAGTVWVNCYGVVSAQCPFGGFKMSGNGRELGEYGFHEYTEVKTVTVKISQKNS
Method: Example 358. ALDH1A1 Enzymatic Assay (In Vitro Assay)
3 μL of ALDH1A1 enzyme (final concentration 20 nM) or assay buffer (100 mM HEPES pH 7.5 with 0.01% Tween 20) were dispensed into a 1,536-well solid-bottom black plate (Greiner Bio One, Monroe, N.C.) followed by pin-tool transfer (23 nL) of candidate inhibitors (final concentration range 968 pM to 57.2 μM) and control (Bay 11-7085, final concentration range 1.31 nM to 2.86 μM). Samples were incubated (RT, protected from light) for 15 minutes followed by a 1 μL substrate addition of NAD^+ and Propionaldehyde (final concentrations of 1 mM and 80 μM, respectively). Plates were centrifuged at 1,000 rpm for 15 seconds, then read in kinetic mode on a ViewLux High-throughput CCD imager (Perkin-Elmer) equipped with standard UV fluorescence optics (340 nm excitation, 450 nm emission) for 10 minutes. The change in fluorescence intensity over the 10-minute reaction period was normalized against no-inhibitor and no-enzyme controls and the resulting percent inhibition data were fitted for biological activity.

Row | Compound | IC50 [µM]
1 | COc1ccc2ncc(C(=O)N3CCN(C(=O)C4CC4)CC3)c(-c3cnn(C)c3)c2c1 [Example 41, (4-(cyclopropanecarbonyl)piperazin-1-yl)(6-methoxy-4-(1-methyl-1H-pyrazol-4-yl)quinolin-3-yl)methanone] | > 10

tested on: MIA PaCa-2 cells; assay: MIA PaCa2 cell-based assay (1,536-well high-content imaging ALDEFLUOR assay); design: species or system human; details: Homo sapiens, 0.5 h, ALDEFLUOR BAAA substrate 500 nM, 30 minutes
Procedure, shortened: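 High-content ALDEFLUOR imaging readout: BAA-retaining cells in FITC channel scored against Hoechst-counted nuclei. Before imaging, MIA PaCa-2 cells seeded at 1,000 per well received final 500 nM BAAA and 0.5 nM Hoechst with compounds in 16-point series (1.4 nM to 47.8 μM), 30 min, 37° C.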

Row | Compound | IC50 [nM]
2 | CS(=O)(=O)N1CCN(C(=O)c2cnc3ccc(F)cc3c2N2CCC(C=O)(c3ccccc3)CC2)CC1 [Example 257, 1-(6-fluoro-3-(4-(methylsulfonyl)piperazine-1-carbonyl)quinolin-4-yl)-4-phenylpiperidine-4-carbaldehyde] | < 500
3 | Cn1ncc2c(N3CCC(C)(C#N)CC3)c(C(=O)N3CCN(S(C)(=O)=O)CC3)cnc21 [Example 206, 4-methyl-1-(1-methyl-5-(4-(methylsulfonyl)piperazine-1-carbonyl)-1H-pyrazolo[3,4-b]pyridin-4-yl)piperidine-4-carbonitrile] | 1000 to 10000
4 | CC1(C#N)CCN(c2c(C(=O)N3CCN(S(C)(=O)=O)CC3)cnc3[nH]ncc23)CC1 [Example 235, 4-methyl-1-(5-(4-(methylsulfonyl)piperazine-1-carbonyl)-1H-pyrazolo[3,4-b]pyridin-4-yl)piperidine-4-carbonitrile] | > 10000
5 | CC1(C#N)CCN(c2c(C(=O)N3CCN(S(C)(=O)=O)CC3)cnc3ccc(F)cc23)CC1 [Example 86, 1-(6-fluoro-3-(4-(methylsulfonyl)piperazine-1-carbonyl)quinolin-4-yl)-4-methylpiperidine-4-carbonitrile] | 1000 to 10000
6 | O=C(c1cnc2ccc(F)cc2c1N1CCC(c2ccccc2)CC1)N1CCN(C(=O)C2CC2)CC1 [Example 72, (4-(cyclopropanecarbonyl)piperazin-1-yl)(6-fluoro-4-(4-phenylpiperidin-1-yl)quinolin-3-yl)methanone] | > 10000
7 | N#CC1(CC2CC2)CCN(c2c(C(=O)N3CCN(C(=O)C4CC4)CC3)cnc3ccc(F)cc23)CC1 [Example 242, 1-(3-(4-(cyclopropanecarbonyl)piperazine-1-carbonyl)-6-fluoroquinolin-4-yl)-4-(cyclopropylmethyl)piperidine-4-carbonitrile] | 500 to 1000
8 | CS(=O)(=O)N1CCN(C(=O)c2cnc3cc(F)c(F)cc3c2-c2ccc(C3(C#N)CC3)cc2)CC1 [Cpd. 323, 1-(4-(6,7-difluoro-3-(4-(methylsulfonyl)piperazine-1-carbonyl)quinolin-4-yl)phenyl)cyclopropane-1-carbonitrile] | < 500
9 | C=CS(=O)(=O)N1CCN(c2c(C(=O)N3CCN(S(C)(=O)=O)CC3)cnc3ccc(F)cc23)CC1 [Example 221, (6-fluoro-4-(4-(vinylsulfonyl)piperazin-1-yl)quinolin-3-yl)(4-(methylsulfonyl)piperazin-1-yl)methanone] | 1000 to 10000
10 | CS(=O)(=O)N1CCN(C(=O)c2cnc3ccc(F)cc3c2N2CCC(O)(c3ccccc3)CC2)CC1 [Example 292, (6-fluoro-4-(4-hydroxy-4-phenylpiperidin-1-yl)quinolin-3-yl)(4-(methylsulfonyl)piperazin-1-yl)methanone] | 1000 to 10000
11 | C[C@H]1CN(C(=O)c2cnc3ccc(F)cc3c2N2CCC(C)(C#N)CC2)CCN1S(C)(=O)=O [Example 226, (S)-1-(6-fluoro-3-(3-methyl-4-(methylsulfonyl)piperazine-1-carbonyl)quinolin-4-yl)-4-methylpiperidine-4-carbonitrile] | 1000 to 10000
12 | CC1(C)CC=C(c2c(C(=O)N3CCN(C(=O)C4CC4)CC3)cnc3ccc(F)cc23)CC1 [Example 77, (4-(cyclopropanecarbonyl)piperazin-1-yl)(4-(4,4-dimethylcyclohex-1-en-1-yl)-6-fluoroquinolin-3-yl)methanone] | < 500
13 | CCC(=O)N1CCN(C(=O)c2cnc3ccc(F)cc3c2N2CCC(C)(C#N)CC2)CC1 [Example 91, 1-(6-fluoro-3-(4-propionylpiperazine-1-carbonyl)quinolin-4-yl)-4-methylpiperidine-4-carbonitrile] | 1000 to 10000
14 | CCC1(C#N)CCN(c2c(C(=O)N3CCN(C(=O)C4CC4)CC3)cnc3ccc(F)cc23)CC1 [Example 202, 1-(3-(4-(cyclopropanecarbonyl)piperazine-1-carbonyl)-6-fluoroquinolin-4-yl)-4-ethylpiperidine-4-carbonitrile] | < 500
15 | COc1ccc2ncc(C(=O)N3CCN(C(=O)C4CC4)CC3)c(N3CCC(=O)CC3)c2c1 [Example 67, 1-(3-(4-(cyclopropanecareonyl)piperazine-1-carbonyl)-6-methoxyquinolin-4-yl)piperidin-4-one] | > 10000
16 | CS(=O)(=O)N1CCN(C(=O)c2cnc3ccc(Cl)cc3c2-c2ccc(C3(C#N)CC3)cc2)CC1 [Example 297, 1-(4-(6-chloro-3-(4-(methylsulfonyl)piperazine-1-carbonyl)quinolin-4-yl)phenyl)cyclopropanecarbonitrile] | < 500
17 | CC(C)(C)c1ccc(-c2c(C(=O)N3CCN(S(C)(=O)=O)CC3)cnc3ccc(F)cc23)cc1 [Cpd. 306, (4-(4-(tert-butyl)phenyl)-6-fluoroquinolin-3-yl)(4-(methylsulfonyl)piperazin-1-yl)methanone] | < 500
18 | CC1(C#N)CCN(c2c(C(=O)N3CCN(S(C)(=O)=O)CC3)cnc3sccc23)CC1 [Example 217, 4-methyl-1-(5-(4-(methylsulfonyl)piperazine-1-carbonyl)thieno[2,3-b]pyridin-4-yl)piperidine-4-carbonitrile] | 1000 to 10000
19 | CN(C)S(=O)(=O)N1CCN(C(=O)c2cnc3ccc(F)cc3c2N2CCC(C#N)(c3ccccc3)CC2)CC1 [Example 270, 4-(4-(4-cyano-4-phenylpiperidin-1-yl)-6-fluoroquinoline-3-carbonyl)-N,N-dimethylpiperazine-1-sulfonamide] | < 500
20 | CS(=O)(=O)N1CCN(C(=O)c2cnc3cc(F)c(F)cc3c2N2CCC(C#N)(c3ccccc3)CC2)CC1 [Cpd. 319, 1-(6,7-difluoro-3-(4-(methylsulfonyl)piperazine-1-carbonyl)quinolin-4-yl)-4-phenylpiperidine-4-carbonitrile] | < 500
21 | CN(C)C(=O)N1CCN(C(=O)c2cnc3ccc(F)cc3c2N2CCC(C#N)(c3ccccc3)CC2)CC1 [Example 272, 4-(4-(4-cyano-4-phenylpiperidin-1-yl)-6-fluoroquinoline-3-carbonyl)-N,N-dimethylpiperazine-1-carboxamide] | < 500
22 | CC(C)C(=O)N1CCN(C(=O)c2cnc3ccc(F)cc3c2N2CCC(C)(C#N)CC2)CC1 [Example 92, 1-(6-fluoro-3-(4-isobutyrylpiperazine-1-carbonyl)quinolin-4-yl)-4-methylpiperidine-4-carbonitrile] | 1000 to 10000
23 | CC(=O)N1CCN(c2c(C(=O)N3CCN(C(=O)C4CC4)CC3)cnc3ccc(F)cc23)CC1 [Cpd. 304, 1-(4-(3-(4-(cyclopropanecarbonyl)piperazine-1-carbonyl)-6-fluoroquinolin-4-yl)piperazin-1-yl)ethanone] | > 10000
24 | N#CC1(c2ccc(-c3c(C(=O)N4CCN(C(=O)C5CC5)CC4)cnc4ccsc34)cc2)CC1 [Example 288, 1-(4-(6-(4-(cyclopropanecarbonyl)piperazine-1-carbonyl)thieno[3,2-b]pyridin-7-yl)phenyl)cyclopropanecarbonitrile] | < 500
25 | CS(=O)(=O)N1CCN(C(=O)c2cnc3ccc(F)cc3c2N2CCC3(CC2)C(=O)Cc2ccccc23)CC1 [Example 247, 1′-(6-fluoro-3-(4-(methylsulfonyl)piperazine-1-carbonyl)quinolin-4-yl)spiro[indene-1,4′-piperidin]-2(3H)-one] | 1000 to 10000
26 | CCS(=O)(=O)N1CCN(C(=O)c2cnc3ccc(F)cc3c2N2CCC(C)(C#N)CC2)CC1 [Example 156, 1-(3-(4-(ethylsulfonyl)piperazine-1-carbonyl)-6-fluoroquinolin-4-yl)-4-methylpiperidine-4-carbonitrile] | 1000 to 10000
27 | N#CC1(c2ccccc2)CCN(c2c(C(=O)N3CCN(C(=O)C4CC4)CC3)cnc3ccc(Cl)cc23)CC1 [Cpd. 313, 1-(6-chloro-3-(4-(cyclopropanecarbonyl)piperazine-1-carbonyl)quinolin-4-yl)-4-phenylpiperidine-4-carbonitrile] | < 500
